Data taken from patent US9289444B2, “Composition for promoting hematogenesis containing quercetin 3-O-β-(2″-galloyl)-rhamnopyranoside as active ingredient” (Chungbuk National University Industry Academic Cooperation …, priority 2011, dated 2016).

How the values were obtained:
[1] = test system: bone marrow stromal cells; assay: Real-time RT-PCR of hematopoietic cytokine mRNA; type: cell-based, mouse
Text: Bone marrow mononuclear cells (BMNCs) were isolated from femurs and tibias of 8 to 12-week-old male C57BL/6 mice by a previously described protocol [Kroeger K, Collins M, Ugozzoli (2009) The preparation of primary hematopoietic cell cultures from murine bone marrow for electroporation. J. Vis. Exp. 23: pii:1026. doi:10.3791/1026] and were separated from dead cells and red blood cells (RBCs) by Histopaque ([…]) (Sigma-Aldrich Chemical, St. Louis, Mo., USA) density gradient centrifugation. Thereafter, the cells were cultured in Iscove's modified Dulbecco's media (IMDM) with 15% heat inactivated fetal bovine serum (FBS), 1% bovine serum albumin (BSA), 100 units/ml penicillin and 100 μg/ml streptomycin at 37° C. in 5% CO2 humidified air. The separated blood was cultured as described previously [Oswald J, et al. (2004). Mesenchymal stem cells can be differentiated into endothelial cells in vitro. Stem Cells, 22: 377-384.] to obtain bone marrow stromal cells in α-minimum essential medium (MEM) with 20% heat inactivated FBS, 100 units/ml penicillin and 100 μg/ml streptomycin at 37° C. in 5% CO2 humidified air.
To confirm whether QGR regulates the expression of hematopoietic cytokines in bone marrow stromal cells, real-time RT-PCR was performed. Bone marrow stromal cells (3×10^5 cells/plate) were incubated with either mouse rIL-3 (100 units/ml) plus rSCF (5 units/ml) plus rEpo (3 units/ml) or QGR (50, 100 or 200 μM/ml) in 60 mm-diameter cell culture plates. The cells were harvested after 4 hr of incubation and washed with PBS and total RNA were extracted using RNA extraction kit (Applied Biosystems, Carlsbad, Calif., USA). First strand synthesis of cDNA was carried out with 1 μg of total RNA using cDNA synthesis kit (Applied Biosystems, Foster City, Calif., USA). Real-time PCR using TaqMan probe PCR master mix kit (Applied Biosystems) was performed according to the manufacturer's instruction using a model 7500 Real-Time PCR System (Applied Biosystems). GAPDH mRNA was utilized as an internal standard to normalize target transcript expression. The relative ratios of SCF, GM-CSF, or Epo mRNA to GAPDH mRNA which can be used to quantify precisely the levels of each mRNA expression, were calculated with the standard curves.

BMNCs = assay: Flow cytometric analysis for cells positive for TER-119; type: cell-based, mouse; conditions: 7 days, 100 or 200 μM/ml, dose-dependently, vs negative control
Experimental: To confirm the differentiation of mouse HSCs or EPCs into erythroid cells by QGR treatment, flow cytometric analysis for mouse anti-TER-119 was performed. BMNCs were cultured with either rEpo (3 units/ml) or QGR (100 or 200 μM/ml) in 6-well plates. Cells were harvested at day 7, washed with PBS, re-suspended at concentration of 1×10^5 cells/ml in 100 μl of PBS containing 0.02% sodium azide and 2% FBS, incubated with 10 μl of mouse anti-CD16/CD32 Ab (eBioScience, San Diego, Calif., USA) as Fc receptor blocker for 3 min at room temperature and incubated with PE-conjugated anti-TER-119 Ab for 20 min at 4° C. Flow cytometric analysis was performed using FACS Calibur (Becton Dickinson, Oxnard, Calif., USA) and the percentage of positively stained cells was determined.

[2] = test system: bone marrow failure mouse induced by busulphan (BU); assay: Semisolid colonogenic assay for BFU-E in BU bone marrow failure model; type: in vivo, Balb/c mice; conditions: from 10 days to 63 days after QGR administration, vs positive control group
Experimental: (§1) Bone marrow failure model induced by administering busulphan (BU) was designed according to the procedures previously described by Molyneux et al (Cell Biol Toxicol 27, 13-40, 2011) and the scheme is shown in FIG. 8. BU (Sigma chemicals, Poole, Dorset, UK) was dissolved in acetone to a final concentration of 18.8 mg/ml, diluted five-fold with distilled water, and was intraperitoneally administered three times for 5 days with the dose of 0.2 ml BU solution per mouse. Equal amount of five-fold diluted acetone solution without BU was administered to vehicle control group. QGR was dissolved in dimethylsulfoxide and diluted with distilled water to a final concentration of 1.25%. Mice were orally administered every two days with QGR (0.25 mg/mouse) for 63 days. Seven or eight mice were sacrificed on days of 1, 5, 10, 16, 25, 40, 49, and 63 after BU administration and were investigated to confirm the effect of QGR to recover bone marrow failure.
In order to investigate whether QGR has an activity to promote the differentiation from hematopoietic stem cells to BFU-E namely an erythroid progenitor in the damaged bone marrow induced by BU administration, the semisolid colonogenic assay was carried out. […] 14 days later, the number of BFU-E colony was counted.

[3] = test system: bone marrow failure mouse induced by busulphan (BU); assay: Colony-forming unit-fibroblast (CFU-F) measurement from MSPCs in BU bone marrow failure model; type: in vivo, Balb/c mice; conditions: decreased from day 10 in positive control group; p<0.05
Experimental: as §1, with “Seven or eight mice were sacrificed on days of 1, 5, 10, 16, 25, 40, 49, and 63 after BU administration and were investigated to confirm the effect of QGR to recover bone marrow failure.” left out
CFU-F, a progenitor cell colony differentiated from MSPCs is in the stage prior to being finally matured into mesenchymal cells such as osteoblast, vascular endothelial cells acting as hematopoietic stem cell niche. In order to investigate the effect of QGR on the formation and differentiation of mesenchymal stem cells, MSPCs were isolated and the number of CFU-F colonies of the respective groups was measured and compared to each other. […] All visible colonies were counted.

[4] = 100 and 200 μM, vs rIL-3+rSCF+rEpo

Structure (SMILES): CC1OC(Oc2c(-c3ccc(O)c(O)c3)oc3cc(O)cc(O)c3c2=O)C(OC(=O)c2cc(O)c(O)c(O)c2)C(O)C1O (stereo not drawn) [QGR, quercetin 3-O-β-(2″-galloyl)-rhamnopyranoside]
- mRNA expression levels of SCF, GM-CSF and Epo ([1]; 50, 100 or 200 μM/ml, 4 hrs, dose-dependent): increased
- Epo mRNA compared to the positive control [1, 4]: significantly increased
- GM-CSF mRNA compared to the positive control [1, 4]: significantly increased
- SCF mRNA compared to the positive control ([1]; all concentrations, vs rIL-3+rSCF+rEpo): significantly increased
- ratio of TER-119+ cells (flow cytometric analysis) (BMNCs): significantly increased
- number of BFU-E [2]: increased significantly and consistently
- number of CFU-F [3]: recovered significantly
